According to patent US7332495B2 (priority 2002, dated 2008):
Read-outs that look alike come from different tables or passages of the source.

What was measured:
NMDA receptor = assay: Electrophysiology of hippocampus's pyramidal cell: NMDA-induced current; format: cell-based; settings: 100 μM NMDA; read-out: IC50 of suppression of current induced by NMDA
rat [1] = assay: Rat tail flick model (focused radiant heat); format: in vivo
Description: A 8.75 mm-projecting lamp (12 v, 50 w) was used to give out focused radiant heat. The terminal 3 cm of the tail is exposed to the heat. The intensity of the focused radiant heat is regulated by a transformer to ensure that the time required to elicit a tail flick response is within 3-5 seconds. The rat's pain threshold is pre-tested for 2-3 times; and only animals with stable reactions were used in the pharmaceutical test. The test substance is taken orally 20 mg/kg. The number of rats whose increase in time for eliciting a tail flick response is by 100% or more at the peak of the drug action (30-45 minutes after administration) is used to calculate analgesic effect.
(§1) Two species of animals (mice and rats) and four types of pain testing models (i.p. 0.7% acetic acid, s.c. 5% formalin, hot plate 55° C., focused radiant heat) were used.

Mice [2] = format: in vivo; settings: 6 days training
Description: 30 mice were divided into 3 groups (10 for each group, ? fifty-fifty): IV-12-1 (1 mg/kg), IV-12-2 (5 mg/kg) and NS. Half of the mice in each group were administrated (s.c.) in the morning and 30 minutes later put into a white box (with medicine), and trained for 30 minutes; Saline is administrated (s.c.) in the afternoon and 30 minutes later put into a black box (without medicine), and trained for 30 minutes. The other half of the group are given saline in the morning and IV-12 in the afternoon, other procedures are the same as above.
The two training periods were at least 6-hour apart and training was continuous for 6 days. On the 7th day, the staying time was tested in both of the boxes.

Acute toxicity in mice = settings: mouse, in vivo, po, Bliss method
Mice [3] = assay: Swelling caused by p-dimethylbenzene in mice; format: in vivo; settings: p.o. 15 or 30 mg/kg
rat [4] = assay: Rat 5% formalin paw s.c.; format: in vivo; settings: p.o., read-out: Analgesia ED50
Description: as §1

rats = assay: Spontaneous withdrawal tests (body weight); format: in vivo
rat [5] = assay: Rat tail flick model (focused radiant heat); format: in vivo; settings: po, read-out: Analgesia ED50
voltage-gating channel = assay: Electrophysiology of hippocampus's pyramidal cell: voltage-gating channel; format: cell-based
Mice [6] = assay: Mice 55° C. hot plate; format: in vivo; settings: Mus musculus, po, read-out: Analgesia ED50
Description: as §1

[7] = IV-12-1 (75 mg/kg), 12 h after withdrawal
[8] = IV-12-1 (75 mg/kg), 24 h after withdrawal
[9] = IV-12-1 (75 mg/kg), 42 h after withdrawal
[10] = IV-12-1 (75 mg/kg), 48 h after withdrawal
[11] = IV-12-1 (75 mg/kg), 66 h after withdrawal
[12] = IV-12-1 (75 mg/kg), 84 h after withdrawal
[13] = IV-12-1 (75 mg/kg), 90 h after withdrawal
[14] = IV-12-1 (75 mg/kg), 96 h after withdrawal
[15] = IV-12-1 (75 mg/kg), 108 h after withdrawal
[16] = IV-12-1 (75 mg/kg), 114 h after withdrawal
[17] = IV-12-1 (75 mg/kg), 120 h after withdrawal
[18] = IV-12-1 (75 mg/kg), 132 h after withdrawal
[19] = IV-12-1 (75 mg/kg), 138 h after withdrawal
[20] = IV-12-1 (75 mg/kg), 144 h after withdrawal
[21] = IV-12-1 (75 mg/kg), 156 h after withdrawal
[22] = IV-12-1 (75 mg/kg), 162 h after withdrawal
[23] = IV-12-1 (75 mg/kg), 168 h after withdrawal
[24] = IV-12-2 (75 mg/kg), 12 h after withdrawal
[25] = IV-12-2 (75 mg/kg), 18 h after withdrawal
[26] = IV-12-2 (75 mg/kg), 24 h after withdrawal
[27] = IV-12-2 (75 mg/kg), 36 h after withdrawal
[28] = IV-12-2 (75 mg/kg), 42 h after withdrawal
[29] = IV-12-2 (75 mg/kg), 48 h after withdrawal
[30] = IV-12-2 (75 mg/kg), 66 h after withdrawal
[31] = IV-12-2 (75 mg/kg), 72 h after withdrawal
[32] = IV-12-2 (75 mg/kg), 84 h after withdrawal
[33] = IV-12-2 (75 mg/kg), 90 h after withdrawal
[34] = IV-12-2 (75 mg/kg), 96 h after withdrawal
[35] = IV-12-2 (75 mg/kg), 108 h after withdrawal
[36] = IV-12-2 (75 mg/kg), 120 h after withdrawal
[37] = IV-12-2 (75 mg/kg), 138 h after withdrawal
[38] = IV-12-2 (75 mg/kg), 144 h after withdrawal
[39] = IV-12-2 (75 mg/kg), 156 h after withdrawal
[40] = IV-12-2 (75 mg/kg), 162 h after withdrawal
[41] = IV-12-2 (75 mg/kg), 168 h after withdrawal

Nc1ccc(CN2CCN(CC(=O)c3ccccc3)CC2)cc1 [IV-12, N^1-(4-aminobenzyl)-N^4-phenacyl piperazine]
IC50 (NMDA receptor): 1110 ± 1000 nM | Increase (tail flick) (%) (rat [1]; 20 mg/kg, Table 5 summary): 34% | change in vivo at 20 mg/kg (rat [1]; Rattus norvegicus, po, orally 20 mg/kg, read-out: increase (%) of tail flick time): 34% | After (s) tail flick time (rat [1]; orally 20 mg/kg, 30-45 minutes after administration): 10.05 s | Staying time in box with medicine (Mice [2]; 1 mg/kg s.c.): 496.4 ± 73.4 s | Staying time in box with medicine (Mice [2]; 5 mg/kg s.c.): 452.8 ± 119.5 s | LD50 (Acute toxicity in mice): 309 mg/kg | Antagonism for swelling caused by p-dimethylbenzene (Mice [3]): no antagonism | ED50 (rat [4]): 102 mg/kg | Weight after withdrawal compared with weight one day before withdrawal (rats; IV-12-1 75 mg/kg, ♀, 18 h after withdrawal): 1.01 ± 0.03 | Weight after withdrawal compared with weight one day before withdrawal (rats; IV-12-1 75 mg/kg, ♀, 42 h after withdrawal): 1.02 ± 0.05 | Weight after withdrawal compared with weight one day before withdrawal (rats; IV-12-1 75 mg/kg, ♀, 66 h after withdrawal): 1.03 ± 0.04 | Weight after withdrawal compared with weight one day before withdrawal (rats; IV-12-1 75 mg/kg, ♀, 90 h after withdrawal): 1.04 ± 0.06 | Weight after withdrawal compared with weight one day before withdrawal (rats; IV-12-1 75 mg/kg, ♀, 114 h after withdrawal): 1.06 ± 0.06 | Weight after withdrawal compared with weight one day before withdrawal (rats; IV-12-1 75 mg/kg, ♀, 162 h after withdrawal): 1.08 ± 0.07 | Weight after withdrawal compared with weight one day before withdrawal (rats; IV-12-1 75 mg/kg, ♂, 18 h after withdrawal): 1.01 ± 0.03 | Weight after withdrawal compared with weight one day before withdrawal (rats; IV-12-1 75 mg/kg, ♂, 42 h after withdrawal): 1.02 ± 0.03 | Weight after withdrawal compared with weight one day before withdrawal (rats; IV-12-1 75 mg/kg, ♂, 66 h after withdrawal): 1.04 ± 0.04 | Weight after withdrawal compared with weight one day before withdrawal (rats; IV-12-1 75 mg/kg, ♂, 90 h after withdrawal): 1.06 ± 0.05 | Weight after withdrawal compared with weight one day before withdrawal (rats; IV-12-1 75 mg/kg, ♂, 114 h after withdrawal): 1.08 ± 0.05 | Weight after withdrawal compared with weight one day before withdrawal (rats; IV-12-1 75 mg/kg, ♂, 138 h after withdrawal): 1.11 ± 0.06 | Weight after withdrawal compared with weight one day before withdrawal (rats; IV-12-1 75 mg/kg, ♂, 162 h after withdrawal): 1.12 ± 0.09 | Increase (%) of weight (rats; [7]): 2.9% | Weight (rats; [7]): 248.1 ± 42 g | Weight (rats; IV-12-1 (75 mg/kg), 18 h after withdrawal): 250.5 ± 39 g | Increase (%) of weight (rats; [8]): 2.2% | Weight (rats; [8]): 246.3 ± 37 g | Weight (rats; IV-12-1 (75 mg/kg), 36 h after withdrawal): 253.9 ± 38 g | Increase (%) of weight (rats; [9]): 4.3% | Weight (rats; [9]): 251.3 ± 37 g | Increase (%) of weight (rats; [10]): 3.3% | Weight (rats; [10]): 249.1 ± 36 g | Increase (%) of weight (rats; IV-12-1 (75 mg/kg), 60 h after withdrawal): 7.2% | Increase (%) of weight (rats; [11]): 4.8% | Weight (rats; [11]): 252.8 ± 37 g | Increase (%) of weight (rats; IV-12-1 (75 mg/kg), 72 h after withdrawal): 4.4% | Increase (%) of weight (rats; [12]): 9.4% | Weight (rats; [12]): 263.7 ± 40 g | Increase (%) of weight (rats; [13]): 6.8% | Weight (rats; [13]): 257.4 ± 39 g | Increase (%) of weight (rats; [14]): 5.4% | Weight (rats; [14]): 254.2 ± 43 g | Increase (%) of weight (rats; [15]): 11.4% | Weight (rats; [15]): 268.6 ± 42 g | Increase (%) of weight (rats; [16]): 8.5% | Weight (rats; [16]): 261.6 ± 40 g | Increase (%) of weight (rats; [17]): 8.0% | Weight (rats; [17]): 260.3 ± 40 g | Increase (%) of weight (rats; [18]): 14.4% | Weight (rats; [18]): 275.8 ± 41 g | Increase (%) of weight (rats; [19]): 11.3% | Weight (rats; [19]): 268.3 ± 41 g | Increase (%) of weight (rats; [20]): 9.8% | Weight (rats; [20]): 264.7 ± 42 g | Increase (%) of weight (rats; [21]): 15.7% | Weight (rats; [21]): 279.0 ± 44 g | Increase (%) of weight (rats; [22]): 12.4% | Weight (rats; [22]): 271.0 ± 44 g | Increase (%) of weight (rats; [23]): 11.7% | Weight (rats; [23]): 269.2 ± 45 g | Weight (rats; IV-12-1 (75 mg/kg), before withdraw): 241.1 ± 38 g | Weight after withdrawal compared with weight one day before withdrawal (rats; IV-12-2 100 mg/kg, ♀, 42 h after withdrawal): 1.01 ± 0.05 | Weight after withdrawal compared with weight one day before withdrawal (rats; IV-12-2 100 mg/kg, ♀, 66 h after withdrawal): 1.01 ± 0.06 | Weight after withdrawal compared with weight one day before withdrawal (rats; IV-12-2 100 mg/kg, ♀, 90 h after withdrawal): 1.02 ± 0.06 | Weight after withdrawal compared with weight one day before withdrawal (rats; IV-12-2 100 mg/kg, ♀, 114 h after withdrawal): 1.02 ± 0.07 | Weight after withdrawal compared with weight one day before withdrawal (rats; IV-12-2 100 mg/kg, ♀, 138 h after withdrawal): 1.04 ± 0.07 | Weight after withdrawal compared with weight one day before withdrawal (rats; IV-12-2 100 mg/kg, ♀, 162 h after withdrawal): 1.04 ± 0.07 | Weight after withdrawal compared with weight one day before withdrawal (rats; IV-12-2 100 mg/kg, ♂, 18 h after withdrawal): 0.99 ± 0.04 | Weight after withdrawal compared with weight one day before withdrawal (rats; IV-12-2 100 mg/kg, ♂, 42 h after withdrawal): 1.00 ± 0.04 | Weight after withdrawal compared with weight one day before withdrawal (rats; IV-12-2 100 mg/kg, ♂, 66 h after withdrawal): 1.00 ± 0.05 | Weight after withdrawal compared with weight one day before withdrawal (rats; IV-12-2 100 mg/kg, ♂, 90 h after withdrawal): 1.00 ± 0.04 | Weight after withdrawal compared with weight one day before withdrawal (rats; IV-12-2 100 mg/kg, ♂, 114 h after withdrawal): 1.01 ± 0.04 | Weight after withdrawal compared with weight one day before withdrawal (rats; IV-12-2 100 mg/kg, ♂, 138 h after withdrawal): 1.03 ± 0.06 | Weight after withdrawal compared with weight one day before withdrawal (rats; IV-12-2 100 mg/kg, ♂, 162 h after withdrawal): 1.04 ± 0.08 | Increase (%) of weight (rats; [24]): 2.0% | Weight (rats; [24]): 259.8 ± 34 g | Increase (%) of weight (rats; [25]): 2.0% | Weight (rats; [25]): 259.8 ± 33 g | Increase (%) of weight (rats; [26]): 0.4% | Weight (rats; [26]): 255.9 ± 32 g | Increase (%) of weight (rats; [27]): 1.9% | Weight (rats; [27]): 259.5 ± 33 g | Increase (%) of weight (rats; [28]): 1.4% | Weight (rats; [28]): 258.5 ± 32 g | Increase (%) of weight (rats; [29]): 0.8% | Weight (rats; [29]): 256.8 ± 31 g | Weight (rats; IV-12-2 (75 mg/kg), 60 h after withdrawal): 259.6 ± 31 g | Increase (%) of weight (rats; [30]): 0.8% | Weight (rats; [30]): 256.8 ± 27 g | Increase (%) of weight (rats; [31]): 0.4% | Weight (rats; [31]): 255.7 ± 29 g | Increase (%) of weight (rats; [32]): 3.4% | Weight (rats; [32]): 263.6 ± 30 g | Increase (%) of weight (rats; [33]): 1.3% | Weight (rats; [33]): 258.2 ± 30 g | Increase (%) of weight (rats; [34]): 0.9% | Weight (rats; [34]): 257.1 ± 28 g | Increase (%) of weight (rats; [35]): 4.5% | Weight (rats; [35]): 266.3 ± 33 g | Increase (%) of weight (rats; IV-12-2 (75 mg/kg), 114 h after withdrawal): 2.1% | Increase (%) of weight (rats; [36]): 1.4% | Weight (rats; [36]): 258.3 ± 29 g | Weight (rats; IV-12-2 (75 mg/kg), 132 h after withdrawal): 272.6 ± 35 g | Increase (%) of weight (rats; [37]): 4.0% | Weight (rats; [37]): 264.9 ± 32 g | Increase (%) of weight (rats; [38]): 3.5% | Weight (rats; [38]): 263.6 ± 32 g | Increase (%) of weight (rats; [39]): 6.6% | Weight (rats; [39]): 271.5 ± 40 g | Increase (%) of weight (rats; [40]): 4.9% | Weight (rats; [40]): 267.2 ± 38 g | Increase (%) of weight (rats; [41]): 4.5% | Weight (rats; [41]): 266.3 ± 36 g | Weight (rats; IV-12-2 (75 mg/kg), before withdraw): 254.8 ± 32 g | ED50 (rat [5]): 162 mg/kg | Effect on voltage-gating channel (voltage-gating channel): did not affect | ED50 (Mice [6]): 20.6 mg/kg
